# Source: patent US11046691B1 (IDEAYA BIOSCIENCES, INC., priority 2018, dated 2021)
# Molecular target: hMAT2A (Homo sapiens (Human), UniProt P31153)
# Test: Phosphate Sensor Fluorescence Assay (MAT2A enzyme inhibition)
# Format: biochemical
# Details: L-methionine 500 uM, ATP 500 uM, class symbols
# Outline: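 Recombinant MAT2A preincubated 15 min at room temperature with compound, then reacted 1 h at room temperature with 500 uM L-methionine and 500 uM ATP in Tris pH 7.5 buffer containing PNP/7-MEG.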
# hMAT2A, sequence (P31153 whole entry): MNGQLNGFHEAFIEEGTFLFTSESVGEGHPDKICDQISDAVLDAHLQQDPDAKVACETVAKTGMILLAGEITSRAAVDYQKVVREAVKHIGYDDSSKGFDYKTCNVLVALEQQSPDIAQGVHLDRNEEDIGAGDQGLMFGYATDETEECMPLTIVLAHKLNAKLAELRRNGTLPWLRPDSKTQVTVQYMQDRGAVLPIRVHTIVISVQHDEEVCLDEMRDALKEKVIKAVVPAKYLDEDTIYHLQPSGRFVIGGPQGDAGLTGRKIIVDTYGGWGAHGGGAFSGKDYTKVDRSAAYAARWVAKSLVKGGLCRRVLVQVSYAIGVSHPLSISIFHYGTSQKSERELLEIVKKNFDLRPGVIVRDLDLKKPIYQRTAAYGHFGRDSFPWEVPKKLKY
row,IC50 [nM],Structure (SMILES)
1,< 200,"[2H]C([2H])([2H])N(c1nc(=O)n(-c2ccccc2Cl)c2nc(C(F)(F)F)ccc12)C([2H])([2H])[2H] [Example 339, 4-(bis(methyl-d3)amino)-1-(2-chloro-phenyl)-7-(trifluoromethyl)-pyrido[2,3-d]pyrimidin-2(1H)-one]"
2,< 200,"CNc1nc(=O)n(-c2cc(O)ccc2C)c2cc(Cl)ccc12 [Example 109, 7-chloro-1-(3-hydroxy-6-methylphenyl)-4-(methylamino)hydroquinazolin-2-one]"
3,< 200,"CNc1nc(=O)n(-c2ccccc2)c2cc(CCl)ccc12 [Example 160, 7-(chloromethyl)-4-(methylamino)-1-phenylhydroquinazolin-2-one]"
4,< 200,"COc1cc(C2CC2)cc2c1c(NCC1(F)CC1)nc(=O)n2-c1ccccc1Cl [Example 407, 1-(2-chlorophenyl)-7-cyclopropyl-4-{[(fluorocyclopropyl)methyl]amino}-5-methoxyhydroquinazolin-2-one]"
5,< 200,"O=c1nc(N2CC[C@@H](O)C2)c2ccc(Cl)cc2n1-c1ccccc1 [Example 239, 4-((3R)-3-hydroxypyrrolidinyl)-7-chloro-1-phenylhydroquinazolin-2-one]"
6,< 200,"CO[C@@H]1CCN(c2nc(=O)n(-c3ccccc3)c3cc(Cl)ccc23)C1 [Example 189, (R)-7-chloro-4-(3-methoxypyrrolidin-1-yl)-1-phenylquinazolin-2(1H)-one]"
7,< 200,"CNc1nc(=O)n(-c2ccccc2)c2nc(C(C)C)ccc12 [Example 414, 4-(methylamino)-7-(methylethyl)-1-phenylpyrido[2,3-d]pyrimidin-2(1H)-2-one]"
8,< 200,"C[C@@H]1CCCN1c1nc(=O)n(-c2ccccc2)c2nc(C(F)(F)F)ccc12 [Example 344, 4-((2R)-2-methylpyrrolidin-1-yl)-1-phenyl-7-(trifluoromethyl)pyrido[2,3-d]-pyrimidin-2(1H)-one]"
9,1000 to 10000,"O=c1nc(O)c2ccc(Cl)cc2n1-c1ccc2[nH]ncc2c1 [Example 357, 1-(1H-indazol-5-yl)-7-chloro-4-hydroxy-hydroquinazolin-2-one]"
10,< 200,"O=c1[nH]c(=O)n(-c2cccnc2)c2nc(C(F)(F)F)ccc12 [Example 359, 1-(pyridin-3-yl)-7-(trifluoromethyl)-pyrido[2,3-d]pyrimidine-2,4(1H,3H)-dione]"
11,< 200,"CNc1nc(=O)n(-c2ccccc2)c2cc(Cl)cc(OCC3CC3)c12 [Example 348, 7-chloro-5-(cyclopropylmethoxy)-4-(methylamino)-1-phenylhydro-quinazolin-2-one]"
12,< 200,"Cc1ccccc1-n1c(=O)nc(NCC(F)F)c2ccc(C(F)(F)F)cc21 [Example 127, 4-[(2,2-difluoroethyl)amino]-1-(2-methylphenyl)-7-(trifluoromethyl)hydro-quinazolin-2-one]"
13,< 200,"C[C@H](O)CNc1nc(=O)n(-c2ccccc2Cl)c2nc(C(F)(F)F)ccc12 [Example 293, 4-[((2S)-2-hydroxypropyl)amino]-1-(2-chlorophenyl)-7-(trifluoromethyl)-pyrido[2,3-d]pyrimidin-2(1H)-one]"
14,< 200,"[2H]C([2H])([2H])Nc1nc(=O)n(-c2ccccc2C)c2cc(C(F)(F)F)ccc12 [Example 367, 4-((methyl-d3)amino)-1-(o-tolyl)-7-(trifluoromethyl)quinazolin-2(1H)-one]"
15,< 200,"O=c1nc(NCC2CCO2)c2ccc(C(F)(F)F)nc2n1-c1ccccc1Cl (stereo not shown) [Example 271, 1-(2-chlorophenyl)-4-[(oxetan-2-ylmethyl)amino]-7-(trifluoromethyl)-pyrido[2,3-d]pyrimidin-2(1H)-one]"
16,< 200,O=c1nc(NCC2(CO)CC2)c2ccc(C(F)(F)F)nc2n1-c1ccccc1Cl [Example 265]
17,< 200,"N#CCCNc1nc(=O)n(-c2ccccc2Cl)c2nc(C(F)(F)F)ccc12 [Example 278, 3-((1-(2-chlorophenyl)-2-oxo-7-(trifluoro-methyl)-1,2-dihydropyrido-[2,3-d]pyrimidin-4-yl)amino)-propanenitrile]"
18,1000 to 10000,"NC(=O)[C@H]1CCCN1c1nc(=O)n(-c2ccccc2)c2cc(Cl)ccc12 [Example 241, (2R)-1-(7-chloro-2-oxo-1-phenylhydro-quinazolin-4-yl)pyrrolidine-2-carboxamide]"
19,< 200,"CNc1nc(=O)n(-c2ccccc2Br)c2cc(C3CC3)ccc12 [Example 351, 1-(2-bromophenyl)-7-cyclopropyl-4-(methylamino)hydroquinazolin-2-one]"
20,< 200,"Cc1ccccc1-n1c(=O)nc(NCC(F)(F)F)c2ccc(C(F)(F)F)cc21 [Example 126, 1-(2-methylphenyl)-4-[(2,2,2-trifluoro-ethyl)amino]-7-(trifluoromethyl)hydro-quinazolin-2-one]"
21,< 200,CO[C@H]1C[C@H](Nc2nc(=O)n(-c3ccccc3Cl)c3nc(C(F)(F)F)ccc23)C1 [Example 301]
22,< 200,"O=c1nc(N2CCOCC2)c2ccc(C(F)(F)F)nc2n1-c1ccccc1Cl [Example 286, 1-(2-chlorophenyl)-4-morpholin-4-yl-7-(trifluoromethyl)pyrido[2,3-d]pyrimidin-2(1H)-one]"
23,< 200,"C[C@]1(Nc2nc(=O)n(-c3ccccc3Cl)c3nc(C(F)(F)F)ccc23)C[C@@H](O)C1 [Example 269, 1-(2-chlorophenyl)-4-(((1s,3s)-3-hydroxy-1-methylcyclobutyl)amino)-7-(trifluoromethyl)pyrido[2,3-d]pyrimidin-2(1H)-one]"
24,200 to 500,O=c1nc(N[C@H]2C[C@@](O)(C(F)(F)F)C2)c2ccc(C(F)(F)F)nc2n1-c1ccccc1Cl [Example 299]
25,< 200,"[2H]C([2H])([2H])Nc1nc(=O)n(-c2ccccc2Cl)c2nc(C(F)(F)F)ccc12 [Example 379, 1-(2-chlorophenyl)-4-((methyl-d3)-amino)-7-(trifluoromethyl)pyrido[2,3-d]pyrimidin-2(1H)-one]"
26,< 200,"O=c1[nH]c(=O)n(-c2ccccc2Cl)c2nc(C(F)(F)F)ccc12 [Example 388, 1-(2-chlorophenyl)-7-(trifluoromethyl)-1,3-dihydropyridino[2,3-d]pyrimidine-2,4-dione]"
27,< 200,"O=c1nc(NCCO)c2ccc(C(F)(F)F)nc2n1-c1ccccc1Cl [Example 296, 1-(2-chlorophenyl)-4-[(2-hydroxy-Iethyl)amino]-7-(trifluoromethyl) pyrido[2,3-d]pyrimidin-2(1H)-one]"
28,< 200,"CNc1nc(=O)n(-c2ccccc2C)c2cc(Cl)cc(OC)c12 [Example 329, 7-chloro-5-methoxy-4-(methylamino)-1-(2-methylphenyl)hydroquinazolin-2-one]"
29,< 200,"O=c1nc(OC2CC2)c2ccc(C(F)(F)F)nc2n1-c1ccccc1Cl [Example 422, 1-(2-chlorophenyl)-4-cyclopropoxy-7-(trifluoromethyl)pyrido[2,3-d]pyrimidin-2(1H)-one]"

# Same assay, conditions: L-methionine 500 uM, ATP 500 uM, numeric bound
row,IC50 [nM],Structure (SMILES)
1,> 10000,"CNc1nc(=O)n(-c2ccccc2)c2cc(Cl)cc(OC3CNC3)c12 [Example 85, 5-azetidin-3-yloxy-7-chloro-4-(methyl-amino)-1-phenylhydroquinazolin-2-one]"
2,> 10000,"CNc1nc(=O)n(-c2ccccc2)c2cc(C)cnc12 [Example 192, 7-methyl-4-(methylamino)-1-phenyl-pyrido[3,2-d]pyrimidin-2(1H)-one]"
